Reference: publication PMC11237774, “On-target, dual aminopeptidase inhibition provides cross-species antimalarial activity” (mBio, 2024)
Like-named read-outs stand apart in the source and are kept apart here.

Legend:
[1] = system: PfNF54-s16-GFP early (I–III) stage gametocytes; test: Image-based gametocyte viability assay; format: cell-based, P. falciparum; conditions: Plasmodium falciparum, 72 h, read-out: IC50 Early-stage Gametocytes (mean ± SD)
Description: (§1) Viability assays were performed as described previously ([32], [33]) against PfNF54-s16-GFP early(I–III), late (IV–V), and mature (V) stage gametocytes. Gametocytes were assessed at the appropriate time points following gametogenesis; early stage (day 2), late stage (day 8), and mature stage (day 12). Compounds diluted in 4% DMSO were transferred into 384-well imaging plates; gametocytes prepared as described previously (35) were added, and plates were incubated for 72 h in 5% CO2, 5% O2, and 60% humidity at 37°C. After 72 h incubation, 5 µL of MitoTracker Red CMH2XRos in phosphate buffered saline (PBS) was added per well, and plates were incubated overnight. Image acquisition and analysis were undertaken on the Opera QEHS micro-plate confocal imaging system. An Acapella-based script using the CMH2XRos fluorescent signal and the GFP-designated object quantifying viable stage-dependent parasite morphology identified gametocytes. Gametocyte viability was calculated as a percentage of the positive (5 µM puromycin) and negative (0.4% DMSO) controls. IC50 values were calculated using a 4-parameter log dose, non-linear regression analysis, with sigmoidal dose response (variable slope) curve fit using GraphPad Prism (ver 4.0). No constraints were used in the curve fit. Chloroquine, artesunate, pyronaridine, pyrimethamine, dihydroartemisinin (DHA), and methylene blue were used as control compounds. Experiments were performed as two or three biological replicates in duplicate.

[2] = system: PfNF54-s16-GFP late (IV–V) stage gametocytes; test: Image-based gametocyte viability assay; format: cell-based, P. falciparum; conditions: Plasmodium falciparum; stages IV–V, 72 h; read-out: IC50 Late-stage Gametocytes (mean ± SD)
Description: as §1, with “Chloroquine, artesunate, pyronaridine, pyrimethamine, dihydroartemisinin (DHA), and methylene blue were used as control compounds.” left out

[3] = system: PfNF54-s16-GFP mature (V) stage gametocytes; test: Image-based gametocyte viability assay; format: cell-based, P. falciparum; conditions: Plasmodium falciparum, 72 h, read-out: IC50 Mature-stage Gametocytes (mean ± SD)
Description: as §1, with “Chloroquine, artesunate, pyronaridine, pyrimethamine, dihydroartemisinin (DHA), and methylene blue were used as control compounds.” left out

[4] = system: P. falciparum Dd2 parasites; test: Fractional inhibitory concentration, artemisinin and MMV1557817 interaction; format: cell-based
Description: Fractional inhibitory concentrations (FIC) were determined as previously described ([44]). […] The FIC for each drug was determined by EC50 of drug in a mixture/EC50 of drug alone, and the sum of FIC was determined by the addition of the two individual FIC values. Synergistic FIC is described as <1, additive = 1 < 2, and antagonism > 2 ([44]).

[5] = system: MMV1557817-resistant parasites; test: 72 h killing assay, MMV1557817-resistant parasites versus parental Dd2; format: cell-based, P. falciparum
Pf3D7 = test: Parasite reduction ratio assay; format: cell-based, P. falciparum
Description: Assays were performed as described previously with some alterations ([37]). […] Specifically, media containing compound was placed in wells every 24 h for up 120 h. […] Parasite growth was measured at day 21 using SYBR green I as described above. Fluorescence was used to determine at what treatment day wells became positive for growth when compared with the well before it; greater than double the fluorescence was determined to be a positive well. […] Experiments were performed in two or three biological replicates in quadruplicate.

[6] = system: P. falciparum clinical isolates; test: Ex vivo drug susceptibility assay (schizont maturation) on clinical isolates; format: cell-based
Description: (§2) Plasmodium isolates were collected from patients attending public health clinics in Timika (Papua, Indonesia), a region endemic for multidrug-resistant strains of P. vivax and P. falciparum ([38][–][40]). Patients with symptomatic malaria presenting to an outpatient facility were recruited into the study if infected with either P. falciparum or P. vivax, with a parasitemia of between 2,000 µL^−1 and 80,000 µL^−1, and the majority (>60%) of asexual parasites at the ring stage of development. Venous blood (5 mL) was collected by venipuncture, and after removal of patient white blood cells using Plasmodipur filters (EuroProxima B.V., The Netherlands), packed infected red blood cells (iRBCs) were used for the ex vivo drug susceptibility assay.
(§3) Drug plates were pre-dosed by diluting the compounds in 50% methanol followed by lyophilization and storage at 4°C. Drug susceptibility of P. vivax and P. falciparum isolates was measured using a protocol modified from the WHO microtest as described previously ([40], [41]). […] A candle jar was used to mature the parasites at 37.0°C for 35–56 h. […] Thick blood films made from each well were stained with 5% Giemsa solution for 30 min and examined microscopically. The number of schizonts per 200 asexual-stage parasites was determined for each drug concentration and normalized to the control well without drug. The dose response data were analyzed using non-linear regression analysis, and the EC50 value was derived using an inhibitory sigmoid Emax model (In Vitro Analysis and Reporting Tool [IVART] [42, 43]).

[7] = system: P. vivax clinical isolates; test: as above; format: cell-based
Description: as §2, §3

[8] = Plasmodium falciparum, ex vivo clinical isolates, n = 15, read-out: P. falciparum median EC50 (range)
[9] = Plasmodium vivax, ex vivo clinical isolates, n = 6, read-out: P. vivax median EC50 (range)
[10] = ex vivo clinical isolates, n = 6, read-out: P. vivax median EC50 (range)

C[C@H]1[C@@H](O)O[C@@H]2O[C@@]3(C)CC[C@H]4[C@H](C)CC[C@@H]1[C@@]24OO3 [DHA, dihydroartemisinin] was tested, and the IC50 ([1]; stages I–III) was 16 ± 2 nM, the IC50 [2] was 35 ± 12 nM and the IC50 [3] was 103 ± 30 nM.
Compound CN(C)c1ccc2nc3ccc(=[N+](C)C)cc-3sc2c1 [Methylene Blue, methylene blue] has an IC50 ([1]; stages I–III) of 110 ± 4 nM, an IC50 [2] of 52 ± 2 nM and an IC50 [3] of 63 ± 26 nM.
For C[C@@H]1CC[C@H]2[C@@H](C)C(=O)O[C@@H]3O[C@@]4(C)CC[C@@H]1[C@]32OO4 [artemisinin, reference compound], the “artemisinin mean FIC ± SEM” value ([4]; ratio MMV1557817:artemisinin 0:5) was 1.00 ± 0.12, the “artemisinin mean FIC ± SEM” value ([4]; ratio MMV1557817:artemisinin 1:4) was 0.75 ± 0.07 and the “artemisinin mean FIC ± SEM” value ([4]; ratio MMV1557817:artemisinin 2:3) was 0.37 ± 0.06. The “artemisinin mean FIC ± SEM” value ([4]; ratio MMV1557817:artemisinin 3:2) was 0.16 ± 0.03, the “artemisinin mean FIC ± SEM” value ([4]; ratio MMV1557817:artemisinin 4:1) was 0.06 ± 0.01 and the “change of susceptibility compared with parental Dd2” value [5] was “marginally but significantly sensitized”.
With CCN(CC)CCCC(C)Nc1ccnc2cc(Cl)ccc12 (stereo not drawn) [chloroquine] the “99.9% PCT” value (Pf3D7; Pf3D7, 10× EC50) was 53 h, the Lag phase (Pf3D7; Pf3D7, 10× EC50) was 0 h and the “Log (PRR)” value (Pf3D7; Pf3D7, 10× EC50, over one cycle) was 3.9 ± 0.2. For the same compound, the IC50 [1] was 157 ± 3.5 nM, the EC50 ([6]; Plasmodium falciparum, read-out: P. falciparum median EC50 (range), ex vivo clinical isolates, n = 15) was 65 nM and the EC50 ([6]; read-out: P. falciparum median EC50 (range), ex vivo clinical isolates, n = 15, listed as CQ) was 64.8 nM. For the same compound, the EC50 ([7]; Plasmodium vivax, read-out: P. vivax median EC50 (range), ex vivo clinical isolates, n = 6) was 36 nM and the EC50 ([7]; read-out: P. vivax median EC50 (range), ex vivo clinical isolates, n = 6, listed as CQ) was 36.4 nM.
In the case of OC(c1cc(C(F)(F)F)nc2c(C(F)(F)F)cccc12)C1CCCCN1 (stereo not drawn) [mefloquine], the EC50 [6, 8] is reported as 10 nM, the EC50 [7, 9] is reported as 11.2 nM and the EC50 [7, 10] is reported as 11 nM.
Compound Clc1ccc2c(N3CCN(CCCN4CCN(c5ccnc6cc(Cl)ccc56)CC4)CC3)ccnc2c1 [piperaquine] has an EC50 [6, 8] of 60.8 nM, an EC50 ([6]; ex vivo clinical isolates, n = 15, read-out: P. falciparum median EC50 (range)) of 61 nM and an EC50 [7, 9] of 46.6 nM. It also gave an EC50 [7, 10] of 47 nM.
COc1ccc(C[C@H](N)C(=O)N[C@H]2[C@@H](O)[C@H](n3cnc4c(N(C)C)ncnc43)O[C@@H]2CO)cc1 [puromycin] was tested, and the IC50 ([1]; stages I–III) was 163 ± 18 nM, the IC50 [2] was 94 ± 5 nM and the IC50 [3] was 73 ± 24 nM.
COc1ccc2nc3cc(Cl)ccc3c(Nc3cc(CN4CCCC4)c(O)c(CN4CCCC4)c3)c2n1 [pyronaridine] was tested, and the IC50 ([1]; stages I–III) was 67 ± 7 nM, the IC50 [2] was 2280 ± 679 nM and the IC50 [3] was 1250 ± 120 nM.
